Where “and” joins values, the source holds several entries; their conditions need not be identical. Identical values can stand only once. Like-named read-outs stand apart in the source and are kept apart here. Marks after values point to notes of the source that are not given here.
Experiments:
SKOV-3 [1] = settings: human
OVCAR-3 [2] = settings: for GI50: read-out: GI50 ±SEM (50% inhibition of cell growth, cytostatic); for IC50: read-out: IC50 ±SEM (50% cytocidal effect, cytotoxic)
SKOV-3 [3] = settings: for GI50: read-out: GI50 ±SEM (50% inhibition of cell growth, cytostatic); for IC50: read-out: IC50 ±SEM (50% cytocidal effect, cytotoxic)
in vitro = settings: human
UWB1.289 [4] = settings: human
OVCAR-3 [5] = settings: human
UWB1.289 [6] = settings: for GI50: read-out: GI50 ±SEM (50% inhibition of cell growth, cytostatic); for IC50: read-out: IC50 ±SEM (50% cytocidal effect, cytotoxic)
[7] = test system: PHA-stimulated PBMCs (T-lymphocytes) from healthy donors; settings: human
UWB1.289 [8] = settings: human; remark: listed apart in the source
[9] = test system: PHA-stimulated PBMCs (T-lymphocytes) from healthy donors; test: Sister chromatid exchanges (SCEs) assay, genotoxicity and PRI
MRC-5 = test: MTT assay, selectivity on normal lung fibroblasts; settings: for GI50: Homo sapiens, MRC5, 48 h, read-out: GI50 ±SEM (50% inhibition of cell growth, cytostatic)
UWB1.289 [10] = test: Sister chromatid exchanges (SCEs) assay, genotoxicity and PRI
[11] = MTT assay, selectivity on normal lung fibroblasts; settings: human, MRC-5 normal lung fibroblasts
PARP2 mRNA (PARP2/ACTB) = test: PARP2 mRNA expression analysis by qRT-PCR; type: cell-based, human; settings: UWB1.289, vs untreated cells, 20 and 40 μΜ, 72 h
PARP1 mRNA (PARP1/ACTB) = type: cell-based, human

CC(C)CCCC(C)[C@H]1CCC2C3NC(=O)C=C4C[C@@H](OC(=O)CCOc5ccc(N(CCCl)CCCl)cc5)CC[C@]4(C)C3CC[C@@]21C (stereo partly drawn) [ASA-C, 7a,9a-dimethyl-10-((R)-6-methylheptan-2-yl)-2-oxo-1,2,4,5,6,7,7a,7b,8,9,9a,10,11,12,12a,12b-hexadecahydrobenzo[d]indeno[4,5-b]azepin-5-yl 3-(4-(bis(2-chloroethyl)amino)phenoxy)propanoate]
IC50 (SKOV-3 [1]): > 100 µM | TGI ±SEM (100% cell growth inhibition, cytostatic) (OVCAR-3 [2]): >100 µM | GI50 (OVCAR-3 [2]): > 100 µM | TGI ±SEM (100% cell growth inhibition, cytostatic) (SKOV-3 [3]): >100 µM | GI50 (SKOV-3 [3]): > 100 µM | IC50 (in vitro): > 100 µM | SCE/Chromosome ± SEM (UWB1.289 [4]): 0.33 ± 0.02 | SCEs/Metaphase ± SEM (UWB1.289 [4]): 24.53 ± 1.72 | IC50 (OVCAR-3 [5]): > 100 µM | TGI ±SEM (100% cell growth inhibition, cytostatic) (UWB1.289 [6]): >100 µM | GI50 (UWB1.289 [6]): 73 ± 7.58 µM | Mean SCE/Chromosome ± SD [7]: 0.19 ± 0.08 | Mean SCEs/metaphase Mean ± SD [7]: 8.81 ± 0.4 | IC50 (UWB1.289 [8]): > 100 µM | Mean PRI ± SD [9]: 2.612 ± 0.13 | PRI (Proliferation Rate Index) [9]: 2.48 and 2.72 and 2.47 and 2.65 and 2.74 | TGI ±SEM (100% cell growth inhibition, cytostatic) (MRC-5): >100 µM | GI50 (MRC-5): > 100 µM | PRI (Proliferation Rate Index) (UWB1.289 [10]): 2.15

O=C(c1cc(Cc2n[nH]c(=O)c3ccccc23)ccc1F)N1CCN(C(=O)C2CC2)CC1 [Olaparib]
TGI ±SEM (100% cell growth inhibition, cytostatic) (OVCAR-3 [2]): >100 µM | GI50 (OVCAR-3 [2]): 32 ± 4.64 µM | IC50 (OVCAR-3 [2]; OVCAR-3, 48 h treatment, MTT): > 100 µM | TGI ±SEM (100% cell growth inhibition, cytostatic) (SKOV-3 [3]): >100 µM | GI50 (SKOV-3 [3]): > 100 µM | IC50 (SKOV-3 [3]; SKOV-3, 48 h treatment, MTT): > 100 µM | TGI ±SEM (100% cell growth inhibition, cytostatic) (UWB1.289 [6]): 85 ± 9.34 µM | GI50 (UWB1.289 [6]): 14 ± 1.78 µM | IC50 (UWB1.289 [6]; UWB1.289, 48 h treatment, MTT): > 100 µM | PRI (Proliferation Rate Index) ([9]; Donor 1 PBMCs, 3 μM): 2.60 | SCE/Chromosome ± SEM ([9]; Donor 1 PBMCs, 3 μM): 0.44 ± 0.02 | SCEs/Metaphase ± SEM ([9]; Donor 1 PBMCs, 3 μM): 20.43 ± 1.1 | PRI (Proliferation Rate Index) ([9]; Donor 2 PBMCs, 3 μM): 2.56 | SCE/Chromosome ± SEM ([9]; Donor 2 PBMCs, 3 μM): 0.47 ± 0.03 | SCEs/Metaphase ± SEM ([9]; Donor 2 PBMCs, 3 μM): 21.6 ± 1.4 | PRI (Proliferation Rate Index) ([9]; Donor 3 PBMCs, 3 μM): 2.47 | SCE/Chromosome ± SEM ([9]; Donor 3 PBMCs, 3 μM): 0.52 ± 0.03 | SCEs/Metaphase ± SEM ([9]; Donor 3 PBMCs, 3 μM): 23.87 ± 1.5 | PRI (Proliferation Rate Index) ([9]; Donor 4 PBMCs, 3 μM): 2.76 | SCE/Chromosome ± SEM ([9]; Donor 4 PBMCs, 3 μM): 0.48 ± 0.03 | SCEs/Metaphase ± SEM ([9]; Donor 4 PBMCs, 3 μM): 21.92 ± 1.2 | PRI (Proliferation Rate Index) ([9]; Donor 5 PBMCs, 3 μM): 2.34 | SCE/Chromosome ± SEM ([9]; Donor 5 PBMCs, 3 μM): 0.55 ± 0.04 | SCEs/Metaphase ± SEM ([9]; Donor 5 PBMCs, 3 μM): 25.32 ± 1.6 | Mean PRI ± SD ([9]; mean of 5 donors' PBMCs, 3 μM): 2.546 ± 0.16 | Mean SCE/Chromosome ± SD ([9]; mean of 5 donors' PBMCs, 3 μM): 0.66 ± 0.04 | Mean SCEs/metaphase Mean ± SD ([9]; mean of 5 donors' PBMCs, 3 μM): 22.63 ± 1.95 | TGI ±SEM (100% cell growth inhibition, cytostatic) (MRC-5): >100 µM | GI50 (MRC-5): > 100 µM | IC50 at 48 h [11]: > 100 µM | PRI (Proliferation Rate Index) (UWB1.289 [10]; UWB1.289, 3 μM): 1.98 * | SCE/Chromosome ± SEM (UWB1.289 [10]; UWB1.289, 3 μM): 0.90 ± 0.06 | SCEs/Metaphase ± SEM (UWB1.289 [10]; UWB1.289, 3 μM): 66.78 ± 4.45

CC12CCC3C(NC(=O)C=C4CC(OC(=O)CCOc5ccc(N(CCCl)CCCl)cc5)CCC43C)C1CCC(=O)N2 (stereo not shown) [ASA-B, 11a,13a-dimethyl-2,6-dioxo-2,3,4,4a,4b,5,6,8,9,10,11,11a,11b,12,13,13a-hexadecahydro-1H-benzo[4,5]azepino [2,3-f]quinolin-9-yl 3-(4-(bis(2-chloroethyl)amino)phenoxy)propanoate]
IC50 (SKOV-3 [1]): 98 ± 8.97 µM | TGI ±SEM (100% cell growth inhibition, cytostatic) (OVCAR-3 [2]): 81 ± 7.82 µM | GI50 (OVCAR-3 [2]): 44 ± 5.04 µM | TGI ±SEM (100% cell growth inhibition, cytostatic) (SKOV-3 [3]): 51 ± 4.46 µM | GI50 (SKOV-3 [3]): 24 ± 2.42 µM | IC50 (in vitro): > 100 µM | SCE/Chromosome ± SEM (UWB1.289 [4]): 1.17 ± 0.07 | SCEs/Metaphase ± SEM (UWB1.289 [4]): 86.76 ± 4.97 | increase of the PARP2/ACTB mRNA ratio (PARP2 mRNA (PARP2/ACTB)): 140- to150 fold | IC50 (OVCAR-3 [5]): > 100 µM | TGI ±SEM (100% cell growth inhibition, cytostatic) (UWB1.289 [6]): 35 ± 3.63 µM | GI50 (UWB1.289 [6]): 10 ± 0.81 µM | Mean SCE/Chromosome ± SD [7]: 0.86 ± 0.06 | Mean SCEs/metaphase Mean ± SD [7]: 39.54 ± 2.84 | IC50 (UWB1.289 [8]): 54 ± 5.11 µM | Mean PRI ± SD [9]: 2.23 ± 0.12 | PRI (Proliferation Rate Index) [9]: 2.30 and 2.18 and 2.04 and 2.34 and 2.29 | TGI ±SEM (100% cell growth inhibition, cytostatic) (MRC-5): >100 µM | GI50 (MRC-5): 86 ± 9.95 µM | PRI (Proliferation Rate Index) (UWB1.289 [10]): 1.77 *

C[C@]12CC[C@H](OC(=O)CCOc3ccc(N(CCCl)CCCl)cc3)CC1=CC(=O)NC1C2CC[C@]2(C)C(=O)CCC12 (stereo partly shown) [ASA-A, 7a,9a-dimethyl-2,10-dioxo-1,2,4,5,6,7,7a,7b, 8,9,9a,10,11,12,12a,12b-hexadecahydrobenzo[d]indeno [4,5-b]azepin-5-yl 3-(4-(bis(2-chloroethyl)amino)phenoxy)propanoate]
IC50 (SKOV-3 [1]): 67 ± 7.11 µM | TGI ±SEM (100% cell growth inhibition, cytostatic) (OVCAR-3 [2]): 38 ± 2.95 µM | GI50 (OVCAR-3 [2]): 29 ± 3.04 µM | TGI ±SEM (100% cell growth inhibition, cytostatic) (SKOV-3 [3]): 33 ± 2.79 µM | GI50 (SKOV-3 [3]): 15 ± 1.26 µM | IC50 (in vitro): > 100 µM | SCE/Chromosome ± SEM (UWB1.289 [4]): 1.0 ± 0.054 | SCEs/Metaphase ± SEM (UWB1.289 [4]): 73.78 ± 4.03 | IC50 (OVCAR-3 [5]): 47 ± 4.82 µM | TGI ±SEM (100% cell growth inhibition, cytostatic) (UWB1.289 [6]): 52 ± 4.61 µM | GI50 (UWB1.289 [6]): 19 ± 1.83 µM | Mean SCE/Chromosome ± SD [7]: 0.66 ± 0.04 | Mean SCEs/metaphase Mean ± SD [7]: 30.28 ± 2.03 | IC50 (UWB1.289 [8]): 71 ± 7.01 µM | Mean PRI ± SD [9]: 2.18 ± 0.13 | PRI (Proliferation Rate Index) [9]: 2.13 and 2.21 and 1.98 and 2.32 and 2.26 | TGI ±SEM (100% cell growth inhibition, cytostatic) (MRC-5): >100 µM | GI50 (MRC-5): 69 ± 7.13 µM | PRI (Proliferation Rate Index) (UWB1.289 [10]): 1.88 *

NC(=O)c1cccc(N)c1 [3-AB, 3-Aminobenzamide, reference compound]
TGI ±SEM (100% cell growth inhibition, cytostatic) (OVCAR-3 [2]; OVCAR-3, 48 h treatment, MTT): >100 µM | GI50 (OVCAR-3 [2]; OVCAR-3, 48 h treatment, MTT): > 100 µM | IC50 (OVCAR-3 [2]; OVCAR-3, 48 h treatment, MTT): > 100 µM | TGI ±SEM (100% cell growth inhibition, cytostatic) (SKOV-3 [3]; SKOV-3, 48 h treatment, MTT): >100 µM | GI50 (SKOV-3 [3]; SKOV-3, 48 h treatment, MTT): > 100 µM | IC50 (SKOV-3 [3]; SKOV-3, 48 h treatment, MTT): > 100 µM | TGI ±SEM (100% cell growth inhibition, cytostatic) (UWB1.289 [6]; UWB1.289, 48 h treatment, MTT): >100 µM | GI50 (UWB1.289 [6]; UWB1.289, 48 h treatment, MTT): 92 ± 13 µM | IC50 (UWB1.289 [6]; UWB1.289, 48 h treatment, MTT): > 100 µM | Mean PRI ± SD ([9]; mean of 5 donors' PBMCs, 3 μM): 2.696 ± 0.12 | Mean SCE/Chromosome ± SD ([9]; mean of 5 donors' PBMCs, 3 μM): 0.30 ± 0.03 | Mean SCEs/metaphase Mean ± SD ([9]; mean of 5 donors' PBMCs, 3 μM): 14.03 ± 1.24 | GI50 (MRC-5): > 100 µM | TGI ±SEM (100% cell growth inhibition, cytostatic) (MRC-5; MRC-5 normal human lung fibroblasts, 48 h treatment, MTT): >100 µM | IC50 at 48 h [11]: > 100 µM | alterations in the PARP1/ACTB mRNA cellular content (PARP1 mRNA (PARP1/ACTB)): non-significant alterations | SCE/Chromosome ± SEM (UWB1.289 [10]; UWB1.289, 3 μM): 0.43 ± 0.025 | SCEs/Metaphase ± SEM (UWB1.289 [10]; UWB1.289, 3 μM): 31.91 ± 1.88
